Results taken from ChEMBL document CHEMBL1150556, “Tetraazaacenaphthene, tetraazaphenalene and 1,3,4-thiadiazole derivatives as potential leishmanicides” (1997).

How the values were obtained:
Leishmania donovani [1] = assay: In vitro leishmanicidal activity determined by measuring 3H thymidine incorporation in promastigotes of Leishmania donovani; format: functional; design: concentration or dose not given beside the values
[2] = In vivo leishmanicidal activity determined against amastigotes of Leishmania donovani in golden hamsters; format: functional, Mesocricetus auratus; design: concentration or dose not given beside the values
Leishmania donovani [3] = assay: In vitro leishmanicidal activity of compound was determined by measuring 3H thymidine incorporation in promastigotes of Leishmania donovani at concentration of 100 uM; format: functional
Cricetulus griseus = assay: TThe in vivo leishmanicidal activity of compound was determined against amastigotes of Leishmania donovani in golden hamsters (Mesocricetus auratus) at dose of 50 mg/kg for 5 days; Toxic; format: functional, organism-based; design: dose 50 mg/kg
Leishmania donovani [4] = assay: In vivo leishmanicidal activity determined against amastigotes of Leishmania donovani in golden hamsters; conditions: Mesocricetus auratus; dose or concentration not given here

CCO/C(O)=C(\C1=NCCN1)c1nn2cc(-c3ccc(Cl)cc3)nc2s1
Inhibition (Leishmania donovani [1]): 40%
Inhibition [2]: 0%

CCn1c(=N)c2c(=O)n(CC)c(=S)n3c2n(c1=S)CC3
Inhibition (Leishmania donovani [1]): 20%
Inhibition [2]: 71.2%

N#CC(=C1SCCS1)c1nnc(N)s1
Inhibition (Leishmania donovani [1]): 18%

CCO/C(O)=C(\C1=NCCN1)c1nnc(N)s1
Inhibition (Leishmania donovani [1]): 0%

Cc1ccccc1-n1c(=O)c2c(=O)n(-c3ccccc3C)c(=O)n3c2n(c1=O)CC3
Inhibition (Leishmania donovani [1]): 93%
Inhibition [2]: 0%

CCO/C(O)=C(\C1=NCCCN1)c1nnc(N)s1
Inhibition (Leishmania donovani [1]): 73%
Inhibition [2]: 44.7%

N=C(N)c1ccc(OCCCCCOc2ccc(C(=N)N)cc2)cc1 [PENTAMIDINE]
inhibition at 100 µM (Leishmania donovani [3]): 100%

O=c1c2c(=O)n(-c3ccccc3)c(=S)n3c2n(c(=S)n1-c1ccccc1)CC3
Inhibition (Leishmania donovani [1]): 85%
Inhibition [2]: 81.3%

CCn1c(=O)c2c(=O)n(CC)c(=S)n3c2n(c1=S)CC3
Inhibition (Leishmania donovani [1]): 76%

CCOC(=O)C(=C1SCCCS1)c1nnc(N)s1
Inhibition (Leishmania donovani [1]): 0%

CCn1c(=O)c2c(=O)n(CC)c(=O)n3c2n(c1=O)CCC3
Inhibition (Leishmania donovani [1]): 58%
Inhibition [2]: 0%

CCO/C(O)=C(\C1=NCCN1)c1nn2cc(-c3ccc(Br)cc3)nc2s1
Inhibition (Leishmania donovani [1]): 31%
Inhibition [2]: 0%

N=c1c2c(=O)n(-c3ccc(F)cc3)c(=S)n3c2n(c(=S)n1-c1ccc(F)cc1)CC3
Inhibition (Leishmania donovani [1]): 99.3%
inhibition (Cricetulus griseus): Toxic

O=c1c2c(=O)n(-c3ccc(F)cc3)c(=S)n3c2n(c(=S)n1-c1ccc(F)cc1)CC3
Inhibition (Leishmania donovani [1]): 50%
Inhibition [2]: 0%

CCOC(=O)C(=C1SCCS1)c1nnc(N)s1
Inhibition (Leishmania donovani [1]): 0%

N=c1c2c(=O)n(-c3ccccc3)c(=S)n3c2n(c(=S)n1-c1ccccc1)CC3
Inhibition (Leishmania donovani [1]): 99.3%
Inhibition [2]: 78.6%

Sodium stibogluconate
inhibition (Leishmania donovani [4]): 100%

CCn1c(=N)c2c(=O)n(CC)c(=S)n3c2n(c1=S)CCC3
Inhibition (Leishmania donovani [1]): 99.2%
Inhibition [2]: 50.7%

Cc1ccccc1-n1c(=N)c2c(=O)n(-c3ccccc3C)c(=O)n3c2n(c1=O)CC3
Inhibition (Leishmania donovani [1]): 7%
